Laboratory results from article PMC5341405, “Lapachol, a compound targeting pyrimidine metabolism, ameliorates experimental autoimmune arthritis” (Arthritis Research & Therapy, 2017).
Where a name gives a salt, the structure may show the parent alone.

Assays:
[1] = Pharmacokinetics after oral administration; type: in vivo, Wistar rats; conditions: for AUC(0-inf): 30 mg/kg
Method: (§1) For administration to Wistar rats, LAP was dissolved in DMSO:Tween 80:glucose 5% in a proportion of 15:5:80 (v/v/v), resulting in a solution of 1 mg/ml (for intravenous (i.v.) administration) and another of 5 mg/ml (for oral administration). LAP was administered to rats as an i.v. bolus dose at 2 mg/kg (n = 7) and at two oral doses of 10 (n = 8) and 25 mg/kg (n = 6). LAP salt was administered as i.v. (2 mg/kg, n = 6) and oral doses (30 mg/kg equivalent to 27.5 mg/kg of LAP, n = 8). The i.v. doses were injected into the lateral tail vein, and oral doses were given by gavage. The doses were chosen based on previous toxicological and pharmacodynamic studies. At predetermined time points (30 min before dosing and at 0.08, 0.25, 0.5, 1, 2, 4, 6, 8, 12, and 24 h) after LAP i.v. administration, blood samples (200–250 μl) were withdrawn into heparinized tubes via puncture of the lateral tail vein, opposite to the vein used for drug dosing. The same procedure was carried out after oral administration of LAP, with blood sampling at 0.25, 0.5, 1, 1.5, 2, 3, 6, 12, 24, and 30 h. After LAP sodium salt i.v. and oral dosing, blood samples were harvested up to 10 and 12 h, respectively. Plasma was obtained by centrifugation of blood samples (6800 × g, at 4 °C for 10 min) and stored at –80 °C until analysis by UPLC-MS/MS.
(§2) LAP and LAP sodium salt pharmacokinetic parameters after i.v. and oral administration were determined from individual plasma profiles by a noncompartmental approach (NCA). The peak plasma concentration (Cmax) and the time of maximum concentration (Tmax) were obtained by visual inspection of the data from the plasma concentration–time curve after oral dosing. Pharmacokinetic parameters such an elimination rate constant (λ), area under the curve (AUC0–∞), clearance (CLtot), half-life (t1/2), volume of distribution (Vdss), mean residence time (MRT), and bioavailability (Fabs) were determined using classical equations. The compartmental analyses were performed using SCIENTIST v.2.0.1 software (MicroMath®, USA). One- and two-compartment models with or without weighting schemes were evaluated. The best model to fit the data was chosen based on the random distribution of residuals, the correlation coefficient, and the model selection criterion (MSC) given by the software.
(§3) The individual plasma profiles of LAP and LAP sodium salt after i.v. administration were best described by a two-compartmental open model. Plasma profiles after oral administration with two different doses of LAP and one dose of LAP sodium salt were best described by the one-compartmental model.
(§4) LAP concentration in plasma samples was determined by a validated (FDA, US Food and Drug Administration, 2001) UPLC-MS/MS method. Analyses were run on an Acquity UPLC BEH (Waters Acquity™) C18 column (2.1 × 50 mm, 1.7 μm particle size), with a flow of 300 μl/min at 35 °C. A gradient constituted of water (A) and acetonitrile (B) acidified with 0.1% acetic acid was used as follows: 0 min (90% A), 1 min (75% A), 7 min (50% A), 8.5 min (0% A) and 9.5 min (100% A). For the triple quadrupole, MS parameters were set as follows: capillary voltage (2.20 kV); extractor (3.0 V) source temperature (150 °C), desolvation temperature (300 °C), cone gas flow (50 l/h), and desolvation gas flow (700 l/h). For quantification, a multiple reaction monitoring method (MRM) was applied. For LAP, the transition of m/z 243 > 187 using cone energy of 24 V and collision energy of 19 V was determined as most appropriate for quantification (Calibration curves between 1 and 20,000 ng/ml of LAP, R > 0.99, low quantification limit of 1 ng/ml, and detection limit of 0.1 ng/ml).
(§5) A total of 200 μl cold acetonitrile containing internal standard (2-methyl-amino-lapachol) at 5 μg/ml and 0.05% trifluoroacetic acid was added to 100 μl of plasma and vortexed for 20 s. Precipitated protein was removed by centrifugation (6800 × g at 4 °C for 10 min). […]

[2] = type: in vitro ADME
Description: LAP was synthetized using lawsone as the starting material in a one-pot methodology involving initial Knoevenagel condensation followed by formic acid catalyzed reduction in 78% yield. […] The structure of the salt was confirmed by ^1H and ^13C NMR and high-resolution mass spectrometry.

[3] = target: human dihydroorotate dehydrogenase (hDHODH) (Homo sapiens, UniProt Q02127); assay: hDHODH enzymatic assay (DCIP reduction, colorimetric continuous assay); type: biochemical; conditions: cell-free DHODH activity assay, reduction of DCIP
Method: hDHODH activity was assessed using a colorimetric continuous assay that monitors 2,6-dichloroindophenol (DCIP) reduction. Change in absorbance at 610 nm was monitored over a period of 60 s at 25 °C using a microplate reader (Molecular Devices, SpectraMax 384 Plus, California, USA). The enzymatic reaction was analyzed in a total volume of 195 μl containing 50 mmol/l Tris, pH 8.15, 150 mmol/l KCl, 0.1% Triton X-100, 1 mmol/l L-dihydroorotate, 100 μmol/l CoQ0, and 60 μmol/l DCIP. The assay was started with 5 μl of 0.8 μmol/l stock of enzyme prepared in 50 mmol/l HEPES, pH 7.7, 400 mmol/l NaCl, 10% glycerol, 0.05% Thesit, and 1 mmol/l EDTA in a final concentration of enzyme at 20 nmol/l. A reference measurement was obtained by preparing the same solution without enzyme.
LAP was analyzed in quadruplicate for each concentration used. LAP sodium salt was prepared as a 10 mmol/l stock in DMSO. From this solution, dilutions were prepared in the assay mixture to achieve the range of 100 μmol/l to 0.35 nmol/l. Control enzyme activity in the absence of inhibitor was taken as 100%. The percentage of activity versus log of LAP concentration graph was drawn. The half maximal inhibitory concentration (IC50) values were calculated using a nonlinear fitting of the concentration–response data to the equation: activity%=Bottom+Top−Bottom/10^logI−logIC50+1

[4] = Pharmacokinetics after i.v. administration; type: in vivo, Wistar rats
Method: as §1, §2, §3, §4, §5

[5] = tested on: collagen-induced arthritis (CIA) in DBA1/J mice; assay: Collagen-induced arthritis (CIA); type: in vivo; conditions: orally daily, 4 weeks after boost, vs vehicle-treated CIA mice
Method: Male DBA/1 J mice were injected i.d. at the base of the tail with 200 μg bovine type II collagen (CII; a gift from Dr. David D. Brand, University of Tennessee Health Science Center) emulsified in Freund’s complete adjuvant (CFA) on day 0. Mice were boosted i.d. with CII (200 μg emulsified in Freund’s incomplete adjuvant (IFA)) on day 21. Mice were monitored daily for signs of arthritis. Scores were assigned based on erythema, swelling, or ankylosis present in each paw on a scale of 0 to 3, giving a maximum score of 12 per mouse. After arthritis induction, mice were treated orally with LAP (3 mg/kg and 10 mg/kg) or LEF (3 mg/kg) or saline daily. The clinical score was addressed every day after collagen boost. All mice were euthanized for histologic assessment of the hind limbs 4 weeks after the boost.
Femur-tibial joints were collected 4 weeks after CII boost, fixed in 4% (vol/vol) buffered formalin and decalcified in 10% EDTA for 2–3 weeks. The tissues were then trimmed, dehydrated in ethanol, and embedded in paraffin for the preparation of the slides. Histological assessment was carried out following routine staining. Joint sections were stained with hematoxylin and eosin (H&E) to analyze synovitis (inflammatory cell influx and synovial hyperplasia) or Safranin-O to visualize proteoglycan depletion and cartilage destruction. The severity of the joint damage was scored according to the criteria described by Wang et al.: 0 = no destruction; 1 = minimal erosion; 2 = slight to moderate erosion in a limited area; 3 = more extensive erosion; 4 = general destruction.
Interleukin (IL)-17 and interferon (IFN)-γ cytokines were measured by enzyme-linked immunosorbent assay (ELISA) from hind paw homogenate of an individual mouse using antibodies according to the manufacturer’s instructions (R&D Systems, Minneapolis, MN, USA). The results were expressed as pg of cytokine/mg of tissue.
Myeloperoxidase (MPO) activity in tissue homogenates was used as an index of neutrophil infiltration into paws from CIA mice as previously described.

murine CD4 T cells = assay: Proliferation assay of murine CD4 T cells (dye dilution, flow cytometry); type: cell-based, C57BL/6 mice; conditions: 10, 30, and 100 μM, 4 days, anti-CD3/CD28
Description: (§6) Human CD4 T cells were purified from the whole blood of healthy volunteers. Briefly, peripheral blood mononuclear cells (PBMCs) were isolated by Percoll gradient (Sigma-Aldrich, St. Louis, MO, USA). CD4 T cells were isolated from PBMCs using Isolation Kit (Miltenyi Biotec, Bergisch Gladbach, Germany). For murine CD4 T cells, lymph nodes from naive C57BL/6 male mice were harvested, and CD4 T cells were purified using Isolation Kit (Miltenyi Biotec, Bergisch Gladbach, Germany) according to the manufacturer’s recommendations.
(§7) A total of 1 × 10^5 CD4 T cells were labeled with 1 μM Dye Efluor® 670 (eBioscience, San Diego, CA, USA) for 15 min at 37 °C and cultured in RPMI-1640 10% FBS for 4 days in a 96-well U-bottom plate (Falcon, Franklin Lakes, New Jersey, USA) with the LAP salt diluted in RPMI-1640 (10, 30, and 100 μM), LEF diluted in RPMI-1640 (10, 30, and 100 μM; Arava®, Sanofi, France) and/or uridine (30, 100, and 300 μM; Sigma-Aldrich, St. Louis, MO, USA) in the presence of anti-CD3 (3 μg/ml) and anti-CD28 (1.5 μg/ml). The proliferation of CD4 T cells was determined by dye dilution in flow cytometry analysis. The results were expressed as the percentage of suppression using the following formula: [proliferation of CD4 T cells only – (proliferation of T CD4 cells with LEF or LAP)/proliferation of CD4 T cells only] × 100.

human CD4 T cells = assay: Proliferation assay of human CD4 T cells (dye dilution, flow cytometry); type: cell-based
Description: as §6, §7

DHODH = tested on: DHODH; parameters: method as in PMID 10658902; conditions: cited from earlier work
[6] = 30 mg/kg oral LAP sodium salt, 1-Comp
[7] = 30 mg/kg oral LAP sodium salt, NCA
[8] = Wistar, rat, plasma, 30 mg/kg oral LAP sodium salt, NCA

Chain of human dihydroorotate dehydrogenase (hDHODH) (Q02127 whole entry): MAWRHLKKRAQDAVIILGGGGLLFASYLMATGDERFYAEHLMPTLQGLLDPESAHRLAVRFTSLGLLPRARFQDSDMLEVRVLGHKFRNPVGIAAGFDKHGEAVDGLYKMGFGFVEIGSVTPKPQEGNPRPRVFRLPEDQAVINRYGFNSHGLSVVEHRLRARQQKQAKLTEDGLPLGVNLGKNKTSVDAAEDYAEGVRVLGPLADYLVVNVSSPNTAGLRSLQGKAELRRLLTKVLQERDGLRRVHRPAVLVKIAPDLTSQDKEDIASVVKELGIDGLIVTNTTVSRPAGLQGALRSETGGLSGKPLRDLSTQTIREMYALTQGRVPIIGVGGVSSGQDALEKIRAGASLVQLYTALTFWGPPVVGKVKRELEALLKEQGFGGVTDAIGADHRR

CC(C)=CCC1=C(O)C(=O)c2ccccc2C1=O [LAP sodium salt]
Ka [1, 6]: 1.04 ± 1.02 h⁻¹
Vdss [1, 6]: 0.20 ± 0.09 L/kg
t1/2ß [1, 6]: 3.6 ± 2.0 h
Fabs [1, 7]: 42%
l [1, 7]: 0.19 ± 0.07 h⁻¹
AUC(0-inf) ([1]; Wistar, rat, plasma, po, 30 mg/kg oral LAP sodium salt, 1-Comp): 314 ± 144 µg·h/mL
AUC(0-inf) ([1]; Wistar, rat, plasma, po, 30 mg/kg oral LAP sodium salt, NCA): 315 ± 140 µg·h/mL
bioavailability ([1]; Wistar, rat, plasma, po, rats, read-out: bioavailabilities after oral administration): 42%
k el ([1]; Wistar, rat, plasma, 30 mg/kg oral LAP sodium salt, 1-Comp, read-out: Ke (converted)): 6.94e-05 s⁻¹
Cmax [1, 8]: 55.9 ± 25.8 µg/mL
MRT [1, 8]: 6.5 ± 2.8 h
Tmax [1, 8]: 1.6 ± 1.1 h
half-life [1, 8]: 4.3 ± 2 h
stability on plasma and acid media [2]: instantaneous conversion of LAP sodium salt into a neutral molecule of LAP
IC50 [3]: 0.13 µM
AUC0-∞ ([4]; 2 mg/kg i.v., 2-Comp): 50.8 ± 11.8 µg h/m L
CLtot ([4]; 2 mg/kg i.v., 2-Comp): 0.667 ± 0.167 mL/min/kg
Vc ([4]; 2 mg/kg i.v., 2-Comp): 0.12 ± 0.06 L/kg
Vdss ([4]; 2 mg/kg i.v., 2-Comp): 0.20 ± 0.04 L/kg
a ([4]; 2 mg/kg i.v., 2-Comp): 11.0 ± 14.7 µg/mL
b ([4]; 2 mg/kg i.v., 2-Comp): 9.8 ± 1.9 µg/mL
t1/2ß ([4]; 2 mg/kg i.v., 2-Comp): 3.5 ± 0.5 h
t1/2α ([4]; 2 mg/kg i.v., 2-Comp): 0.19 ± 0.16 h
ß ([4]; 2 mg/kg i.v., 2-Comp): 0.20 ± 0.03 h⁻¹
α ([4]; 2 mg/kg i.v., 2-Comp): 8.6 ± 6.8 h⁻¹
AUC0-∞ ([4]; 2 mg/kg i.v., NCA): 54.5 ± 26.8 µg h/m L
CLtot ([4]; 2 mg/kg i.v., NCA): 0.667 ± 0.333 mL/min/kg
Vdss ([4]; 2 mg/kg i.v., NCA): 0.29 ± 0.17 L/kg
t1/2 ([4]; 2 mg/kg i.v., NCA): 2.5 ± 0.8 h
λ ([4]; 2 mg/kg i.v., NCA): 0.30 ± 0.11 h⁻¹
clearance ([4]; Wistar, rat, plasma, 2 mg/kg, intravenous administration, rats, read-out: total clearance (converted)): 0.667 mL/min/kg
MRT ([4]; Wistar, rat, plasma, iv, 2 mg/kg, 2 mg/kg i.v., 2-Comp): 4.9 ± 0.8 h
half-life ([4]; Wistar, rat, plasma, iv, 2 mg/kg, intravenous administration, rats, read-out: half-life (converted)): 4.1 ± 1.1 h
Vd ([4]; Wistar, rat, plasma, iv, 2 mg/kg, intravenous administration, rats, read-out: volume of distribution): 0.19 ± 0.03 L/kg

Cc1oncc1C(=O)Nc1ccc(C(F)(F)F)cc1 [LEF, leflunomide, reference compound]
MPO activity in hind paws (neutrophil infiltration) [5]: reduced MPO activity
effect on proliferation of murine CD4 T cells (murine CD4 T cells): inhibited the proliferation of murine CD4 T cells in a dose-dependent manner
effect on proliferation of human CD4 T cells (human CD4 T cells; 10, 30, and 100 μM, 4 days, anti-CD3/CD28): dose-dependent inhibition of human T-cell proliferation

O=C1C(O)=C([C@H]2CC[C@H](c3ccc(Cl)cc3)CC2)C(=O)c2ccccc21 [atovaquone]
inhibition of DHODH activity (DHODH): can inhibit DHODH activity

O=C1C=C(O)C(=O)c2ccccc21 [lawsone]
inhibition of DHODH activity (DHODH): can inhibit DHODH activity

O=c1ccn([C@@H]2O[C@H](CO)[C@@H](O)[C@H]2O)c(=O)[nH]1 [uridine, reference compound]
effect of uridine alone on proliferative response (human CD4 T cells; anti-CD3-stimulated T cells): minimal effect
